Source: ChEMBL document CHEMBL1152529, “Synthesis, antifungal, haemolytic and cytotoxic activities of a series of bis(alkylpyridinium)alkanes” (Bioorg Med Chem, 2009)
Values after ≈ are worked out from the molar mass of the structure shown. Active and inactive are the calls of the source. The rule behind the calls is not given here.

Key:
[1] = tested on: Cryptococcus neoformans; experiment: Antifungal activity against Cryptococcus neoformans ATCC 90112 after 48 to 72 hrs by broth microdilution method; assay type: functional; details: Cryptococcus neoformans, ATCC 90112; read-out: MIC
[2] = tested on: Candida albicans; experiment: Antifungal activity against Candida albicans ATCC 10231 after 48 to 72 hrs by broth microdilution method; assay type: functional; details: Candida albicans, ATCC 10231; read-out: MIC
[3] = tested on: A549; experiment: Cytotoxicity against human A549 cells after 3 hrs by MTS assay; assay type: cell-based; details: A549, 3 h
[4] = Cytotoxicity against human erythrocytes assessed as hemolysis after 1 hr; assay type: cell-based, Erythrocyte
[5] = tested on: Cryptococcus neoformans var. grubii H99; experiment: Inhibition of lysophospholipase acyltransferase activity of Cryptococcus neoformans var. grubii H99 PLB assessed as formation of radiolabeled dipalmitoyl phosphatidylcholine at 0.25 to 250 uM at pH 4 by radiometric assay
[6] = Inhibition of phospholipid fatty acyl chain hydrolysis activity of Cryptococcus neoformans var. grubii H99 PLB assessed as formation of radiolabeled free fatty acid at pH 4 by radiometric assay
[7] = target: Phospholipase A2, major isoenzyme (Sus scrofa, UniProt P00592); experiment: Inhibition of porcine pancreatic PLA2 after 1 hr by radiometric method
[8] = tested on: MDCK; experiment: Cytotoxicity against MDCK cells after 3 hrs by MTS assay; assay type: cell-based; details: Canis lupus familiaris
[9] = tested on: Cryptococcus neoformans var. grubii H99; experiment: Inhibition of lysophospholipid fatty acyl chain hydrolysis activity of Cryptococcus neoformans var. grubii H99 PLB assessed as formation of radiolabeled free fatty acid at 0.25 to 250 uM at pH 4 by radiometric assay
[10] = tested on: Lomentospora prolificans; experiment: Antifungal activity against Scedosporium prolificans 05-203060 after 48 to 72 hrs by broth microdilution method; assay type: functional
[11] = tested on: Aspergillus flavus; experiment: Antifungal activity against Aspergillus flavus ATCC 204304 after 48 to 72 hrs by broth microdilution method; assay type: functional
[12] = tested on: Candida parapsilosis; experiment: Antifungal activity against Candida parapsilosis ATCC 22019 after 48 to 72 hrs by broth microdilution method; assay type: functional; details: Lodderomyces parapsilosis
[13] = tested on: Rhizopus arrhizus; experiment: Antifungal activity against Rhizopus oryzae 05-203111 after 48 to 72 hrs by broth microdilution method; assay type: functional
[14] = tested on: Aspergillus fumigatus; experiment: Antifungal activity against Aspergillus fumigatus ATCC 204305 after 48 to 72 hrs by broth microdilution method; assay type: functional
[15] = tested on: Exophiala spinifera; experiment: Antifungal activity against Exophiala spinifera 03-200803 after 48 to 72 hrs by broth microdilution method; assay type: functional
[16] = tested on: Curvularia australiensis; experiment: Antifungal activity against Bipolaris australiensis 03-201798 after 48 to 72 hrs by broth microdilution method; assay type: functional
[17] = tested on: Scedosporium apiospermum; experiment: Antifungal activity against Scedosporium apiospermum 05-203100 after 48 to 72 hrs by broth microdilution method; assay type: functional
[18] = tested on: Aspergillus terreus; experiment: Antifungal activity against Aspergillus terreus 05-202844 after 48 to 72 hrs by broth microdilution method; assay type: functional
[19] = tested on: Nakaseomyces glabratus; experiment: Antifungal activity against Candida glabrata 04-202345 after 48 to 72 hrs by broth microdilution method; assay type: functional
[20] = tested on: Pichia kudriavzevii; experiment: Antifungal activity against Candida krusei ATCC 6258 after 48 to 72 hrs by broth microdilution method; assay type: functional

Sequence of Phospholipase A2, major isoenzyme (P00592 whole entry): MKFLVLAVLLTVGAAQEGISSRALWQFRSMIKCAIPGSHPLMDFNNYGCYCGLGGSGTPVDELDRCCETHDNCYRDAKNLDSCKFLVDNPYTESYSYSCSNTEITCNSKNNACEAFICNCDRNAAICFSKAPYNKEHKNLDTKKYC

Structure (SMILES)	MIC [1]	MIC [2]	Activity [5]	IC50 [6]	IC50 [7]	Activity [9]	IC50 [3]	HC50 at 1 h [4]	IC50 [8]	other results
CCCc1cc[n+](CCCCCCCCCCCC[n+]2ccc(CCC)cc2)cc1	44 µM	11 µM								
CC(C)(C)c1cc[n+](CCCCCCCCCCCC[n+]2ccc(C(C)(C)C)cc2)cc1	11 µM	22 µM	inactive	34 µM	> 250 µM	inactive	> 350 µM	> 350 µM	> 350 µM	
CCCCC(CCCC)c1cc[n+](CCCCCCCCCCCC[n+]2ccc(C(CCCC)CCCC)c(C)c2)cc1C	2.7 µM	2.7 µM					10 µM	31 µM	10 µM	
CCCCCc1cccc[n+]1CCCCCCCCCCCC[n+]1ccccc1CCCCC	2.7 µM	2.7 µM					> 350 µM	> 350 µM	315 µM	
C[C@@H]1[C@H](O)[C@@H](C)/C=C/C=C/C=C/C=C/C=C/C=C/C=C/[C@H](O[C@@H]2O[C@H](C)[C@@H](O)[C@H](N)[C@@H]2O)C[C@@H]2O[C@](O)(C[C@@H](O)C[C@@H](O)[C@H](O)CC[C@@H](O)C[C@@H](O)CC(=O)O[C@H]1C)C[C@H](O)[C@H]2C(=O)O [AMPHOTERICIN B]	0.54 µM (≈ 0.499 µg/mL)	0.54 µM (≈ 0.499 µg/mL)								MIC [10]: 4.3 µM (≈ 3.97 µg/mL); MIC [11]: 0.54 µM (≈ 0.499 µg/mL); MIC [12]: 0.13 µM (≈ 0.12 µg/mL); MIC [13]: 0.06 µM (≈ 0.0554 µg/mL); MIC [14]: 0.54 µM (≈ 0.499 µg/mL); MIC [15]: 0.27 µM (≈ 0.25 µg/mL); MIC [16]: 0.03 µM (≈ 0.0277 µg/mL); MIC [17]: 17 µM (≈ 15.7 µg/mL); MIC [18]: 1.1 µM (≈ 1.02 µg/mL); MIC [19]: 1.1 µM (≈ 1.02 µg/mL); MIC [20]: 0.54 µM (≈ 0.499 µg/mL)
CCCCCCCCc1cc[n+](CCCCCCCCCCCC[n+]2ccc(CCCCCCCC)cc2)cc1	2.7 µM	2.7 µM						98 µM		
CCCCCc1ccc[n+](CCCCCCCCCCCC[n+]2cccc(CCCCC)c2)c1	11 µM	5.5 µM						> 350 µM		
Cc1cc[n+](CCCCCCCCCCCC[n+]2ccc(C)cc2)cc1	88 µM	22 µM	inactive	> 250 µM	> 250 µM	inactive	> 350 µM		> 350 µM	
c1cc[n+](CCCCCCCCCCCC[n+]2ccccc2)cc1	88 µM	44 µM	inactive	> 250 µM	> 250 µM	inactive		> 350 µM		
CCCCc1cc[n+](CCCCCCCCCCCC[n+]2ccc(CCCC)cc2)cc1	11 µM	5.5 µM					215 µM	> 350 µM	150 µM	
CCCCC(CCCC)c1cc[n+](CCCCCCCCCCCC[n+]2ccc(C(CCCC)CCCC)cc2)cc1	1.4 µM	1.4 µM	inactive	5 µM	53 µM	inactive	55 µM	124 µM	56 µM	
c1ccc(Cc2cc[n+](CCCCCCCCCCCC[n+]3ccc(Cc4ccccc4)cc3)cc2)cc1	22 µM	11 µM								
CCCCCc1cc[n+](CCCCCCCCCCCC[n+]2ccc(CCCCC)c(C)c2)cc1C	1.4 µM	2.7 µM	inactive	8 µM	134 µM	inactive	122 µM	> 350 µM	145 µM	
CCc1ccc[n+](CCCCCCCCCCCC[n+]2cccc(CC)c2)c1	88 µM	44 µM								
c1ccc(CCCc2cc[n+](CCCCCCCCCCCC[n+]3ccc(CCCc4ccccc4)cc3)cc2)cc1	2.7 µM	2.7 µM	inactive	5 µM	104 µM	inactive	55 µM	67 µM	65 µM	
OCc1cc[n+](CCCCCCCCCCCC[n+]2ccc(CO)cc2)cc1	88 µM	88 µM								
CCc1cc[n+](CCCCCCCCCCCC[n+]2ccc(CC)cc2)cc1	44 µM	11 µM	inactive	138 µM	> 250 µM	inactive	> 350 µM		> 350 µM	

Further lines, with some results ahead:

MIC [1]	MIC [2]	Activity [5]	IC50 [6]	IC50 [7]	Activity [9]	Structure (SMILES)	IC50 [3]	HC50 at 1 h [4]	IC50 [8]	other results
2.7 µM	2.7 µM	inactive	11 µM	> 250 µM	inactive	CC(C)CCCc1cc[n+](CCCCCCCCCCCC[n+]2ccc(CCCC(C)C)cc2)cc1	54 µM	227 µM	62 µM	
88 µM	88 µM	inactive	> 250 µM	> 250 µM	inactive	OCCCc1cc[n+](CCCCCCCCCCCC[n+]2ccc(CCCO)cc2)cc1	> 350 µM	> 350 µM	> 350 µM	
44 µM	22 µM					CC(C)c1cc[n+](CCCCCCCCCCCC[n+]2ccc(C(C)C)cc2)cc1	> 350 µM		> 350 µM	
5.5 µM	2.7 µM	inactive	47 µM	56 µM	inactive	C=CCCCc1cc[n+](CCCCCCCCCCCC[n+]2ccc(CCCC=C)cc2)cc1	> 350 µM	> 350 µM	> 350 µM	
1.4 µM	2.7 µM					CCCCCc1cc[n+](CCCCCCCCCCCC[n+]2ccc(CCCCC)cc2)cc1 [listing 1 of 2 here]				
2.7 µM	5.5 µM	inactive	57 µM	67 µM	inactive	CC(C)CCc1cc[n+](CCCCCCCCCCCC[n+]2ccc(CCC(C)C)cc2)cc1	> 350 µM	> 350 µM	> 350 µM	
		inactive			inactive	CCCCCc1cc[n+](CCCCCCCCCCCC[n+]2ccc(CCCCC)cc2)cc1 [listing 2 of 2 here]				
2.7 µM	5.5 µM					CC(C)(C)CCc1cc[n+](CCCCCCCCCCCC[n+]2ccc(CCC(C)(C)C)cc2)cc1	105 µM	> 350 µM	135 µM	
2.7 µM	1.4 µM	inactive	6 µM	> 250 µM	inactive	CCCCCCc1cc[n+](CCCCCCCCCCCC[n+]2ccc(CCCCCC)cc2)cc1	48 µM	129 µM	61 µM	
